What follows are compounds tested against eIF4E (Homo sapiens (Human), UniProt P06730) (assay: TR-FRET assay for competitive binding of cap analogs to eIF4E). Settings: N7-alkylated GDP derivatives; single measurement unless noted (a = average over 2 measurements); read-out: AC50/μM.
Text: His tagged eIF4E protein was purchased from Fitzgerald Industries International (80R-125; Acton, Mass.) and tRNA was purchased from SIGMA (R5636; St. Louis, Mo.). A biotinylated 20 nucleotide RNA oligo (5′Phos/rGrGrA rCrCrC rCrUrC rUrCrC rCrUrC rCrCrC rCrC biotin-3′) was purchased from Integrated DNA Technologies (Coralville, Iowa). Europium labelled anti his antibody was purchased from Perkin Elmer (ADOI 10; Waltham, Mass.) and streptavidin conjugated alexa fluor 647 was purchased from Life Technologies (S32357; Grand Island, N.Y.).
The TR-FRET assay was performed in an assay buffer of PBS (pH 7.4), 0.02% Tween, and 0.1% BSA using four separate addition steps. Initially, 5 μl of His-eIF4E (10 nM) and tRNA (0.1 mg/ml) were added into a black walled 384 well small volume plate. Next, 1 al/well of freshly diluted compound was added using the Beckman Coulter Biomek FX liquid dispenser with a final DMSO concentration of 1%. The compound and eIF4E were allowed to bind for 15 minutes at room temperature. The third addition consisted of adding 4 μl of chemically capped 7mGDP imidazole mRNA-biotin (10 nM) into every well, with the exception of one column containing only buffer to use as a background control. The binding reaction was incubated for one hour at room temperature. Finally, 5 al of the europium-labeled anti-His antibody (10 nM) and streptavidin conjugated alexa fluor 647 (10 nM) TR-FRET detection reagents were added to each well and allowed to incubate at room temperature protected from light for 1 h. The plates were read on the Envision plate reader (Perkin-Elmer) to measure signals from both the Alexa fluor (665 nm) and the europium (615 nm). A ratio of the alexa fluor and europium fluorescence as a function of cap analog concentration was calculated for data analysis and data were fit to a standard EC50 inhibition curve in Graph Pad.

eIF4E, sequence (P06730 whole entry): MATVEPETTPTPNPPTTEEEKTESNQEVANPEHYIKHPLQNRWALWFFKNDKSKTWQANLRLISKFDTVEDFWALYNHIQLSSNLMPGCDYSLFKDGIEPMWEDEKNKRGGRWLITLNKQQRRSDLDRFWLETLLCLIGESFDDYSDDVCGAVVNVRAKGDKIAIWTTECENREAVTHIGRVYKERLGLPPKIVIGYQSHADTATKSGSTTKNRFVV

AC50 [µM]	Structure (SMILES)
47.1	Nc1nc([O-])c2c(n1)n([C@@H]1O[C@H](COP(=O)(O)OP(=O)(O)O)[C@@H](O)[C@H]1O)c[n+]2C(c1ccccc1)c1ccccc1 [Example 16]

Same assay, conditions: N^7-alkylated GMP derivatives; competition with capped 7mGDP mRNA-biotin; single measurement unless footnoted as average; read-out: AC50

AC50 [µM]	Structure (SMILES)
> 100	CCc1ccc(-c2ccc(C(C)=O)cc2)cc1 [Example 60]
16.7	CCc1ccc(-c2nc(C)no2)cc1 [Example 61]
> 100	CCc1ccc(-c2ccccc2OC)cc1 [Example 62]
> 100	CCc1ccc(-c2noc(C)n2)cc1 [Example 63]
> 100	CCc1ncc(-c2ccc(F)cc2)o1 [Example 64]
29	CCc1ccc(-c2ccccc2)cc1 [Example 65]
5.91	CCc1ccc(-c2cccs2)nc1 [Example 66]
2.69	CCc1ccc(-c2ccsc2)cc1 [Example 67]
52.9	CCc1nc2ccccc2s1 [Example 68]
63.2	CCc1cc2ccccc2s1 [Example 69]
23.7	CCc1ccc2nonc2c1 [Example 70]
> 100	CCc1nc2ccccc2n1C [Example 71]
> 100	CCc1cccc2c1cnn2C [Example 72]
> 100	CCc1ccc2cnn(C)c2c1 [Example 73]
> 100	CCc1ccc2c(cnn2C)c1 [Example 74]

From patent US10676499B2, “3′ end caps, 5′ end caps and combinations thereof for therapeutic RNA” (NOVARTIS AG, priority 2014, dated 2020)
